# Experiments:
# [1] = system: NS3 protease in Huh-7 cells co-transfected with NS3-NS4A-NS4B-NS5A-tTA and SEAP constructs; assay: NS3 protease surrogate cell-based assay (Example 39), SEAP reporter; settings: Homo sapiens, SEAP activity, 24-h incubation, read-out: EC50 as determined by the assay of Example 39
# From the text: NS3 Protease Cell-based Assay
# This assay was done with Huh-7 cells, a human cell line derived from a hepatoma, co-transfected with 2 DNA constructs:
# one expressing a polyprotein comprising the HCV non-structural proteins fused to tTA in the following order: NS3-NS4A-NS4B-NS5A-tTA (called NS3);
# the other expressing the reporter protein, secreted alkaline phosphatase, under the control of tTA (called SEAP).
# The polyprotein must be cleaved by the NS3 protease for the mature proteins to be released. Upon release of the mature proteins, it is believed that the viral proteins will form a complex at the membrane of the endoplasmic reticulum while tTA will migrate to the nucleus and transactivate the SEAP gene. Therefore, reduction of NS3 proteolytic activity should lead to reduction of mature tTA levels and concomitant decrease in SEAP activity.
# To control for other effects of the compounds, a parallel transfection was done where a construct expressing tTA alone (called tTA) was co-transfected with the SEAP construct such that SEAP activity is independent of NS3 proteolytic activity. […] After a 24-h incubation period, an aliquot of the medium was drawn and the SEAP activity in this aliquot was measured with the Phospha-Light kit (Tropix). […]
# [2] = biological target: bovine pancreatic α-chymotrypsin (Bos taurus, UniProt P00766); assay: Specificity assay (Example 40), bovine pancreatic α-chymotrypsin; assay type: biochemical; settings: read-out: α-Chym. activity in the specificity assay of Example 40
# Description: The specificity of the compounds was determined against a variety of serine proteases: human leukocyte elastase, porcine pancreatic elastase and bovine pancreatic α-chymotrypsin and one cysteine protease: human liver cathepsin B. In all cases a 96-well plate format protocol using a calorimetric p-nitroaniline (pNA) substrate specific for each enzyme was used. Each assay included a 1 h enzyme-inhibitor pre-incubation at 30° C. followed by addition of substrate and hydrolysis to ≈30% conversion as measured on a UV Thermomax® microplate reader. Substrate concentrations were kept as low as possible compared to KM to reduce substrate competition. Compound concentrations varied from 300 to 0.06 μM depending on their potency.
# The final conditions for each assay were as follows:
# 50 mM Tris-HCl pH 8, 0.5 M Na2SO4, 50 mM NaCl, 0.1 mM EDTA, 3% DMSO, 0.01% Tween-20 with;
# [100 μM Succ-AAPF-pNA and 250 pM α-chymotrypsin], [133 μM Succ-AAA-pNA and 8 nM porcine elastase], [133 μM Succ-AAV-pNA and 8 nM leukocyte elastase]; or
# The sequential 2-fold dilutions of the inhibitor solution were performed on a separate plate by the liquid handler using 50 mM Tris-HCl pH 8, 50 mM NaCl, 0.1 mM EDTA, 0.02% Tween-20, 15% DMSO. All other specificity assays were performed in a similar fashion.
# The percentage of inhibition was calculated using the formula:
# [1-((UVinh−UVblank)/(UVctl−UVblank))]×100 […]
structure (smiles),measurement,setting,value
C=C[C@@H]1C[C@]1(NC(=O)[C@@H]1C[C@@H](Oc2cc(-c3ccccc3)nc3cc(OC)ccc23)CN1C(=O)[C@@H](NC(=O)OC(C)(C)C)C(C)C)C(=O)O [compound 601],EC50,[1],8.2 µM
same,IC50,[2],> 75 µM
